Results on four compounds are retold here after patent US10300058B2, “Tyrosine kinase inhibitor and uses thereof” (Xuanzhu Pharma Co., Ltd., priority 2014, dated 2019).

Like-named read-outs stand apart in the source and are kept apart here.

For assay [1], the target named is EGFR (d746-750) (Homo sapiens (Human), UniProt P00533, DEL746-750). The experiment in a line: Mobility Shift Assay, in vitro enzyme-inhibiting activity, EGFR (d746-750). Type of assay: biochemical. Conditions: for IC50: Km ATP; for Selectivity WT/d746-750: ratio of IC50. The method, boiled down: (§1)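 Compounds in 4-fold dilutions (10 concentrations) preincubated 10 min at room temperature with enzyme, then kinase reaction at 28° C for kinase-dependent time before stop solution. Percent substrate conversion read by Caliper mobility shift; inhibition versus DMSO and blank controls, IC50 fitted.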
Chain of EGFR (d746-750) (P00533 other isoform, or with tags, fused parts or gaps del 1-668/del 746-750 limits assumed): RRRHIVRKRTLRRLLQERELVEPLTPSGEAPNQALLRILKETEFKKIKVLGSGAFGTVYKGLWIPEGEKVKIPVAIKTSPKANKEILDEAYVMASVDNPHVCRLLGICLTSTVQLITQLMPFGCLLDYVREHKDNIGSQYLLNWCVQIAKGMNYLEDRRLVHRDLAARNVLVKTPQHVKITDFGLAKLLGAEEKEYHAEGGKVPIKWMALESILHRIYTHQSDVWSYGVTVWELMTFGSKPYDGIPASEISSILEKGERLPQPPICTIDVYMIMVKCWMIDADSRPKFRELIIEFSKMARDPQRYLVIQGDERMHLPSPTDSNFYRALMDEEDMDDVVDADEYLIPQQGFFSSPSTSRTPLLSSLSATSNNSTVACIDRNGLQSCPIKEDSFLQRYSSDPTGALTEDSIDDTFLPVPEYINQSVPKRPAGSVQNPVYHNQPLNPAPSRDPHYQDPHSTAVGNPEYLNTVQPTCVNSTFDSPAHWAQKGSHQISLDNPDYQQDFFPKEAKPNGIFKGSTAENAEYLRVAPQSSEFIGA

Assay [2] has as its target EGFR L858R (Homo sapiens (Human), UniProt P00533, L858R). The experiment in a line: Mobility Shift Assay, in vitro enzyme-inhibiting activity, EGFR L858R. The following applies: for IC50: Km ATP; for Selectivity WT/L858R: ratio of IC50. It is filed as biochemical. The essentials:
as §1

The target in assay [3] is EGFR T790M (Homo sapiens (Human), UniProt P00533, T790M). The experiment in a line: Mobility Shift Assay, in vitro enzyme-inhibiting activity, EGFR T790M. Type of assay: biochemical. Conditions: for IC50: Km ATP; for Selectivity (WT/T790M): ratio of IC50. The essentials: as §1
Chain of EGFR T790M (P00533 25-1210 T790M): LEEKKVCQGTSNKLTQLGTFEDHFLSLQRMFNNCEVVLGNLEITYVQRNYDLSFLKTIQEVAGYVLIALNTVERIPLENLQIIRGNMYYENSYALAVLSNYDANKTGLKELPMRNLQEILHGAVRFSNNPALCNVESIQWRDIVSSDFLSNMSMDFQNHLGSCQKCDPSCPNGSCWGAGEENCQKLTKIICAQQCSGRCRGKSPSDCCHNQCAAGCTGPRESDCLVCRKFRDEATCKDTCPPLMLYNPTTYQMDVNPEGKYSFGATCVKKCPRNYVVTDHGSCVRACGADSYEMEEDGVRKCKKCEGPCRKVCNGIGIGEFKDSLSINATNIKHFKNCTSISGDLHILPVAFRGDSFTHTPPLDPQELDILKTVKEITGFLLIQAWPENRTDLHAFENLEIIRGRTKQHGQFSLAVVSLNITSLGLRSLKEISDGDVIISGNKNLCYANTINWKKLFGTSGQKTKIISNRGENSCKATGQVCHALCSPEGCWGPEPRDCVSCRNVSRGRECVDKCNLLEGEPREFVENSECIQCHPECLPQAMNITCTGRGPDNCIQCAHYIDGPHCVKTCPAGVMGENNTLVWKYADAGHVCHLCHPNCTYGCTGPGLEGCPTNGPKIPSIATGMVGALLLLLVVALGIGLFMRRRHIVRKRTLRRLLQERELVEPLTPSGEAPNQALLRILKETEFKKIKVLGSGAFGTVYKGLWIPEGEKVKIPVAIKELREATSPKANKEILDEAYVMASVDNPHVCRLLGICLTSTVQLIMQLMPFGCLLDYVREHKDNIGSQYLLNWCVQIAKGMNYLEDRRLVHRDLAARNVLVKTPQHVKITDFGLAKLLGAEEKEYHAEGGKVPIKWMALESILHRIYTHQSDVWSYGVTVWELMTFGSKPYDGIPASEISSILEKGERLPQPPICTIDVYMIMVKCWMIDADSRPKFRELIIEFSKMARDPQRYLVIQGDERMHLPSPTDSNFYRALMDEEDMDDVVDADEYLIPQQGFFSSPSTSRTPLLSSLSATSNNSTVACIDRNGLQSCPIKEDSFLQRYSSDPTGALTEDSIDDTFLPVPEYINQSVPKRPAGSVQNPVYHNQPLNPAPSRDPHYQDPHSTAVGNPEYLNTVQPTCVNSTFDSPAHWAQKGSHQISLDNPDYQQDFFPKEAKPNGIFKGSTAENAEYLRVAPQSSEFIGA
Assay [4] addresses EGFR T790M-L858R (Homo sapiens (Human), UniProt P00533, L858R/T790M). Put plainly: Mobility Shift Assay, in vitro enzyme-inhibiting activity, EGFR T790M-L858R. Type of assay: biochemical. Conditions: for IC50: Km ATP; for Selectivity WT/T790M-L858R: ratio of IC50. The essentials: as §1
Assay [5] concerns A431 cell (wild-type EGFR gene). The experiment in a line: In vitro cytologic activity, Celltiter-Glo, A431 cells. The following applies: Homo sapiens, A-431, 72 h. Type of assay: cell-based. The method, boiled down:
(§2)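 H1975 cells (2000/well) and A431 cells (3000/well) were seeded overnight at 37 °C, 5% CO2 in medium with 10% FBS, then dosed with 10-point compound dilution series from a 10 mM DMSO stock. 0.5% DMSO served as high control and 1000 nM as low control. Viability was read by CellTiter-Glo luminescence.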
(In general: Cellular ATP, detected with luciferase, serves as a proxy for viable cell number.)

Assay [6] has as its system H1975 cell (EGFR-T790M/L858R double mutation). The experiment in a line: In vitro cytologic activity, Celltiter-Glo, H1975 cells. It is filed as cell-based, human. The following applies: for IC50: Homo sapiens, NCI-H1975, 72 h, 72 h, Celltiter-Glo; for Selectivity (A431/H1975): ratio of IC50. The method, boiled down: as §2
[7] abbreviates: Table 8, read-out: IC50 EGFRT790M-L858R.

Chain of EGFR T790M-L858R (P00533 25-1210 T790M/L858R): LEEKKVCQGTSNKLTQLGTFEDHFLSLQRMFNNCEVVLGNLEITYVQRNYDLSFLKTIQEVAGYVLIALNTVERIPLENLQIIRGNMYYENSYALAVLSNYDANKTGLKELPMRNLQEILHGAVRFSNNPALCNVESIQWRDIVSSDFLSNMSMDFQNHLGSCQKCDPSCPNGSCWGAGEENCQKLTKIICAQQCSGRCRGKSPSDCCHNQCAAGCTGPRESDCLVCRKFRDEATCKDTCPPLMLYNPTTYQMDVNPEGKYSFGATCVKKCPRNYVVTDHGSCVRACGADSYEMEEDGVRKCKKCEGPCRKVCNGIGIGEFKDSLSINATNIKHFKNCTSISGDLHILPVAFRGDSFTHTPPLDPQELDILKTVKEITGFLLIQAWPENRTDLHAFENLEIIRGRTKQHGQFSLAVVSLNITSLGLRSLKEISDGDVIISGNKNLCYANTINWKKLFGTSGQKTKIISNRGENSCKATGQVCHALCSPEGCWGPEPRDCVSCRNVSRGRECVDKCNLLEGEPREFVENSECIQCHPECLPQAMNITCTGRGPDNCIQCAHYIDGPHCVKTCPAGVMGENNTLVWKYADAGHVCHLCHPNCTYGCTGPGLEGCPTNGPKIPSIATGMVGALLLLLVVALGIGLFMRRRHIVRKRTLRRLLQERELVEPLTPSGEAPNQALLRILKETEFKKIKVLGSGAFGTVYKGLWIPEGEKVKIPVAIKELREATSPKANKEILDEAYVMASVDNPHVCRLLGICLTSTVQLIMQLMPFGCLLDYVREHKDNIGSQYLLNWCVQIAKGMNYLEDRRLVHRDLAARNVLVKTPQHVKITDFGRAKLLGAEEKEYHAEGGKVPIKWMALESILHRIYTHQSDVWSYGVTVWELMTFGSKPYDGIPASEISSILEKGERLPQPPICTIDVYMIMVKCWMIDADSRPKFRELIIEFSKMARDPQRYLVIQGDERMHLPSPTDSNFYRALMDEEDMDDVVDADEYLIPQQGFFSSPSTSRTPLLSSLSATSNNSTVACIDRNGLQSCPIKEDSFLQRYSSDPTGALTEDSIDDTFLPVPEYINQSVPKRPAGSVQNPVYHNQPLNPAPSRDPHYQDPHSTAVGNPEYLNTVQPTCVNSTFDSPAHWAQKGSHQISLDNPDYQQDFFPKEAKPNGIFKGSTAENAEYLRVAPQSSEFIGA
Chain of EGFR L858R (P00533 25-1210 L858R): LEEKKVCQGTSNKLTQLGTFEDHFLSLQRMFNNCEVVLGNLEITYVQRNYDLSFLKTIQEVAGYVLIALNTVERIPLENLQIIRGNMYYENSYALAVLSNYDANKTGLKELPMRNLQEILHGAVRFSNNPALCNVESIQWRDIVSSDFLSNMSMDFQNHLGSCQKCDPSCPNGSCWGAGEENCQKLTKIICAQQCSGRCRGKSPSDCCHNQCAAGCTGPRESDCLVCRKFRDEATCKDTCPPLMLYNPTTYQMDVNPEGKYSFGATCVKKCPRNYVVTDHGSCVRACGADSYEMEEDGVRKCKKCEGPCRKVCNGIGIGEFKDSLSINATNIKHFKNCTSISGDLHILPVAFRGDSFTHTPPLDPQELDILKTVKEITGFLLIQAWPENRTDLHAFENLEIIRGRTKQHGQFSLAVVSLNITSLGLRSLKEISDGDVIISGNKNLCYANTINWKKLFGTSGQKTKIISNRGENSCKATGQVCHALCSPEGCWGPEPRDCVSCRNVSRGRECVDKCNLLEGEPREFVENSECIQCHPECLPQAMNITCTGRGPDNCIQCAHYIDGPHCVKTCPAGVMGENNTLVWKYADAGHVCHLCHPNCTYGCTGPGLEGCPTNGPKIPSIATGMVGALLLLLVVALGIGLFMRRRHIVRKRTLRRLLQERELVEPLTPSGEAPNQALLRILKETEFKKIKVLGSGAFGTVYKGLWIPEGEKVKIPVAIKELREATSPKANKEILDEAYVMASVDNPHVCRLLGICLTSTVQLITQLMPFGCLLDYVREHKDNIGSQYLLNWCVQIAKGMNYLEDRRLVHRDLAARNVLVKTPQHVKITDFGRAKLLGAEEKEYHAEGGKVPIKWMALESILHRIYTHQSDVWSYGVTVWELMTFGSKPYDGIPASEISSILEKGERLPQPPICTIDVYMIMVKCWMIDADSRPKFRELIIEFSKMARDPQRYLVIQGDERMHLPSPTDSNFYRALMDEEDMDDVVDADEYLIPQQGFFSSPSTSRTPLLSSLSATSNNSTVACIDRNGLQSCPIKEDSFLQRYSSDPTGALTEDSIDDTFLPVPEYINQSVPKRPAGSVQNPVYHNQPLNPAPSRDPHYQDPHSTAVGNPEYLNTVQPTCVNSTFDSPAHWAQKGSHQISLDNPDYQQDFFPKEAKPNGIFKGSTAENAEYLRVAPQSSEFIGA

On to `C=CC(=O)Nc1cccc(Nc2nc(Nc3ccc(N4CCC(N5CCOCC5)CC4)cc3OC)ncc2C(F)(F)F)c1` [Compound 28, N-(3-((2-((2-methoxy-4-(4-morpholinopiperidin-1-yl)phenyl)amino)-5-(trifluoromethyl)pyrimidin-4-yl)amino)phenyl)acrylamide], for which the IC50 (commonly the point on the concentration scale where inhibition reaches its midpoint) in assay [1] (Table 8) turned out to be 5.5 nM; in assay [2] (Table 8), 11 nM; in assay [3] (Table 4, unit inferred), 1.2 nM; in assay [4] (setting [7]), 1.5 nM; in assay [5] (Table 10, unit inferred) it was 703 nM; in assay [6] (Table 10, unit inferred) it was 75.2 nM. In addition, the “Selectivity (WT/T790M)” value in assay [3] (Table 4) was found to be 60.8. In addition, in assay [6] (Table 10), the “Selectivity (A431/H1975)” value came to 9.4.

For `C=CC(=O)Nc1cccc(Nc2nc(Nc3ccc(C4CCN(C(C)=O)CC4)cc3OC)ncc2C(F)(F)F)c1` [Compound 2, N-(3-((2-((4-(1-acetylpiperidin-4-yl)-2-methoxyphenyl)amino)-5-(trifluoromethyl)pyrimidin-4-yl)amino)phenyl)acrylamide], the IC50 in assay [1] (Table 5) was found to be 24.2 nM; in assay [2] (Table 5) it was 91.8 nM; in assay [3] (Table 1), 6.2 nM; in assay [4] (Table 5), 2.5 nM; in assay [5] (Table 9), 1850 nM; in assay [6] (Table 9), 104 nM. Also, the “Selectivity WT/d746-750” value in assay [1] (Table 5) is given as 14.2. Besides, the “Selectivity WT/L858R” value in assay [2] (Table 5) was 3.7. Moreover, in assay [3] (Table 1), the “Selectivity (WT/T790M)” value is 89.0. Further, the “Selectivity WT/T790M-L858R” value in assay [4] (Table 5) came out at 140.2. In assay [6] (Table 9), the “Selectivity (A431/H1975)” value stood at 17.7.

Consider `C=CC(=O)Nc1cccc(Nc2nc(Nc3ccc(C4CCN(S(C)(=O)=O)CC4)cc3OC)ncc2C(F)(F)F)c1` [Compound 27, N-(3-((2-((2-methoxy-4-(1-(methylsulfonyl)piperidin-4-yl)phenyl)amino)-5-(trifluoromethyl)pyrimidin-4-yl)amino)phenyl)acrylamide], for which the 50% inhibitory concentration (IC50) in assay [1] (Table 8) came out at 36 nM; in assay [2] (Table 8), 88 nM; in assay [3] (Table 4, unit inferred), 9.6 nM; in assay [4] (setting [7]), 9.8 nM; in assay [5] (Table 10, unit inferred), 2790 nM; in assay [6] (Table 10, unit inferred), 278 nM. Also, in assay [3] (Table 4), the “Selectivity (WT/T790M)” value amounted to 90.7. The “Selectivity (A431/H1975)” value in assay [6] (Table 10) turned out to be 10.0.

Turning to `C=CC(=O)Nc1cccc(Nc2nc(Nc3ccc(N4CC5(CN(C(C)=O)C5)C4)cc3OC)ncc2C(F)(F)F)c1` [Compound 31, N-(3-((2-((4-(6-acetyl-2,6-diazaspiro[3.3]heptan-2-yl)-2-methoxyphenyl)amino)-5-(trifluoromethyl)pyrimidin-4-yl)amino)phenyl)acrylamide], the 50% inhibitory concentration (IC50) in assay [1] (Table 7) is 28.6 nM; in assay [2] (Table 7), 39.3 nM; in assay [3] (Table 7), 3.55 nM; in assay [4] (Table 7), 4.73 nM; in assay [5] (Table 10, unit inferred) it was 2720 nM; in assay [6] (Table 10, unit inferred), 278 nM. In addition, in assay [1] (Table 7), the “Selectivity WT/d746-750” value is given as 7.4. Also, the “Selectivity WT/L858R” value in assay [2] (Table 7) is 5.4. Further, the “Selectivity (WT/T790M)” value in assay [3] (Table 7) was determined as 59.2. Further, the “Selectivity WT/T790M-L858R” value in assay [4] (Table 7) stood at 44.4. For the same compound, the “Selectivity (A431/H1975)” value in assay [6] (Table 10) came to 9.8.
